Test results: the NIST ThermoML archive (doi:10.1016/j.tca.2004.12.015)
± gives the expanded uncertainty stated by the source.

How the values were obtained:
[1] = Adiabatic calorimetry
[2] = Molar enthalpy of transition or fusion; conditions: Adiabatic calorimetry

With `N#CCCNc1ccccc1` [3-anilinopropanenitrile] the Triple point temperature ([1]; Crystal 1) was 323.5 ± 0.1 K, the Triple point temperature ([1]; Crystal 2) was 310.63 ± 0.05 K and the “Molar enthalpy of transition or fusion” value ([2]; Crystal 1) was 0.2342 ± 0.0012 kcal/mol. The “Molar enthalpy of transition or fusion” value ([2]; Crystal 2) was 4.6367 ± 0.0012 kcal/mol.
